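Results reflect a 48-hour exposure of cells in 96-well plates to compound at five concentrations. Here, GI50 denotes the concentration required for 50% inhibition of growth.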 Active and inactive are the calls of the source. Rule as the data show it: active = GI50 up to about 1.1 µM and inactive = higher.
Columns and labels:
Experiment in all cases: inhibition of tumour cell growth, NCI panel, 48 h
SR = tested on: SR
UACC-257 = tested on: UACC-257
A549 = tested on: A549
ACHN = tested on: ACHN
CAKI-1 = tested on: CAKI-1
SNB-19 = tested on: SNB-19
SW-620 = tested on: SW-620
SK-MEL-2 = tested on: SK-MEL-2
Malme-3M = tested on: Malme-3M
RXF 393 = tested on: RXF 393
SNB-75 = tested on: SNB-75
SN12C = tested on: SN12C
OVCAR-5 = tested on: OVCAR-5
HOP-62 = tested on: HOP-62
PC-3 = tested on: PC-3
MDA-MB-435 = tested on: MDA-MB-435
RPMI-8226 = tested on: RPMI-8226
MDA-N = tested on: MDA-N
U-251 = tested on: U-251
M14 = tested on: M14

Row | Compound | GI50 (SR) | GI50 (UACC-257) | GI50 (A549) | GI50 (ACHN) | GI50 (CAKI-1) | GI50 (SNB-19) | GI50 (SW-620) | GI50 (SK-MEL-2) | GI50 (Malme-3M) | GI50 (RXF 393) | GI50 (SNB-75) | GI50 (SN12C) | GI50 (OVCAR-5) | GI50 (HOP-62) | GI50 (PC-3) | GI50 (MDA-MB-435) | GI50 (RPMI-8226) | GI50 (MDA-N) | GI50 (U-251) | GI50 (M14)
1 | COC(=O)/C=C1/OC(c2ccccc2)=CC1=O | > 23.4 µM (inactive) | 24.7 µM (inactive) | 29 µM (inactive) | 13.5 µM (inactive) | 19.4 µM (inactive) | 17.3 µM (inactive) | 16.1 µM (inactive) | 22.5 µM (inactive) | 18.9 µM (inactive) | 14.5 µM (inactive) | 15.5 µM (inactive) | 19 µM (inactive) | 18.6 µM (inactive) | 21.6 µM (inactive) | 20.4 µM (inactive) | 18.3 µM (inactive) | 6.25 µM (inactive) | 17.3 µM (inactive) | 16.4 µM (inactive) | 23.3 µM (inactive)
2 | CCC1(CC)C(=O)N(C(=O)c2ccc(Cl)cc2)N(C(=O)c2ccccc2Cl)C1=O | 34.9 µM (inactive) | > 100 µM (inactive) | > 100 µM (inactive) | 36.1 µM (inactive) | > 100 µM (inactive) | 66.1 µM (inactive) | 29.4 µM (inactive) | > 100 µM (inactive) | 35.7 µM (inactive) | > 100 µM (inactive) | 16.1 µM (inactive) | 45.1 µM (inactive) | > 100 µM (inactive) | 46 µM (inactive) | > 100 µM (inactive) | 11.2 µM (inactive) | 25.8 µM (inactive) | 39.7 µM (inactive) | 33.3 µM (inactive) | > 100 µM (inactive)
3 | C1CSCCSCCCSCCSCCCSCCSCCCSCCSC1 | > 100 µM (inactive) | > 100 µM (inactive) | > 100 µM (inactive) | > 100 µM (inactive) | > 100 µM (inactive) | > 100 µM (inactive) | > 100 µM (inactive) | > 100 µM (inactive) | > 100 µM (inactive) | > 100 µM (inactive) |  | > 100 µM (inactive) | > 100 µM (inactive) | > 100 µM (inactive) | 69.3 µM (inactive) | > 100 µM (inactive) | 86.1 µM (inactive) | > 100 µM (inactive) | > 100 µM (inactive) | > 100 µM (inactive)
4 | COc1ccc(NC(=O)C(C#N)=C(SC)SC)cc1 | > 100 µM (inactive) | > 100 µM (inactive) | > 100 µM (inactive) | > 100 µM (inactive) | 50.5 µM (inactive) | > 100 µM (inactive) | > 100 µM (inactive) | > 100 µM (inactive) | > 100 µM (inactive) | > 100 µM (inactive) |  | > 100 µM (inactive) | > 100 µM (inactive) | > 100 µM (inactive) | > 100 µM (inactive) | > 100 µM (inactive) | > 100 µM (inactive) | > 100 µM (inactive) | > 100 µM (inactive) | > 100 µM (inactive)
5 | O=C(CCCl)NN=C1NCCCN1 | > 100 µM (inactive) | > 100 µM (inactive) | > 100 µM (inactive) | > 100 µM (inactive) |  | > 100 µM (inactive) | > 100 µM (inactive) | > 100 µM (inactive) | > 100 µM (inactive) | > 100 µM (inactive) | > 100 µM (inactive) | > 100 µM (inactive) | > 100 µM (inactive) | > 100 µM (inactive) | > 100 µM (inactive) | > 100 µM (inactive) | > 100 µM (inactive) | > 100 µM (inactive) | > 100 µM (inactive) | > 100 µM (inactive)
6 | N#CC(C#N)=C1C(C#N)=C(N)NC12OCCO2 | > 100 µM (inactive) | > 100 µM (inactive) | > 100 µM (inactive) | > 100 µM (inactive) | > 100 µM (inactive) | > 100 µM (inactive) | > 100 µM (inactive) | > 100 µM (inactive) | > 100 µM (inactive) | > 100 µM (inactive) |  | > 100 µM (inactive) | > 100 µM (inactive) | > 100 µM (inactive) | > 100 µM (inactive) | > 100 µM (inactive) | > 100 µM (inactive) | > 100 µM (inactive) | > 100 µM (inactive) | > 100 µM (inactive)
7 | COc1cc(/N=C\N(C)C)c2ncccc2c1 | 1.62 µM (inactive) | > 100 µM (inactive) | 79.6 µM (inactive) | > 100 µM (inactive) | 86.3 µM (inactive) | > 100 µM (inactive) |  | 46.2 µM (inactive) | > 100 µM (inactive) | 75.3 µM (inactive) | 52.8 µM (inactive) | > 100 µM (inactive) | > 100 µM (inactive) | > 100 µM (inactive) | 90.6 µM (inactive) | 28.5 µM (inactive) | 46.5 µM (inactive) | 20.4 µM (inactive) | 79.3 µM (inactive) | 48.8 µM (inactive)
8 | CC(C)=CCc1c(O)c(CC=C(C)C)c2oc(-c3ccc(O)cc3O)c(CC=C(C)C)c(=O)c2c1O | 2.34 µM (inactive) | 12.5 µM (inactive) | 5.4 µM (inactive) | 7.62 µM (inactive) | 12.7 µM (inactive) | 12.6 µM (inactive) | 6.1 µM (inactive) | 3.66 µM (inactive) | 16.3 µM (inactive) | 4.99 µM (inactive) | 10.6 µM (inactive) | 8.59 µM (inactive) | 14.8 µM (inactive) | 9.06 µM (inactive) | 6.46 µM (inactive) | 4.52 µM (inactive) | 3.43 µM (inactive) | 7.82 µM (inactive) | 9.12 µM (inactive) | 8.83 µM (inactive)
9 | CCCN(CCC)C(=S)N/N=C(/C)c1ccccc1O | 3.06 µM (inactive) | 7.71 µM (inactive) | 5.64 µM (inactive) | 3.97 µM (inactive) | 8.49 µM (inactive) | 14.3 µM (inactive) | 5.55 µM (inactive) | 6.7 µM (inactive) | 3.2 µM (inactive) | 23.6 µM (inactive) | 5.56 µM (inactive) | 5.82 µM (inactive) | 10.3 µM (inactive) | 4.25 µM (inactive) | 5.94 µM (inactive) | 8.38 µM (inactive) | 4.33 µM (inactive) | 9.77 µM (inactive) | 3.84 µM (inactive) | 2.94 µM (inactive)
10 | CC1=NN(C(=O)CC(=O)Nc2cccc(C)c2)C(=O)C1/N=N/c1ccc(S(=O)(=O)CCOS(=O)(=O)O)cc1 (stereo not given) | 0.49 µM (active) | 7.71 µM (inactive) | 4.48 µM (inactive) | 4.72 µM (inactive) | 0.546 µM (active) | 4 µM (inactive) | 0.406 µM (active) | 0.313 µM (active) | 0.839 µM (active) | 1.62 µM (inactive) | 0.805 µM (active) | 0.471 µM (active) | 36.6 µM (inactive) | 5.47 µM (inactive) | 0.359 µM (active) | 0.211 µM (active) | 1.86 µM (inactive) | 0.309 µM (active) | 3.32 µM (inactive) | 0.484 µM (active)
11 | c1cc2c(ncc3cscc32)s1 | > 100 µM (inactive) | > 100 µM (inactive) | > 100 µM (inactive) | > 100 µM (inactive) | > 72.4 µM (inactive) | > 100 µM (inactive) | > 100 µM (inactive) | > 100 µM (inactive) | > 100 µM (inactive) | > 79.3 µM (inactive) | > 52.6 µM (inactive) | > 100 µM (inactive) | > 89.5 µM (inactive) | > 100 µM (inactive) | > 100 µM (inactive) | > 100 µM (inactive) | > 100 µM (inactive) | > 100 µM (inactive) | > 87.3 µM (inactive) | > 100 µM (inactive)
12 | CCCC(=O)Oc1c2ccsc2c(OC(=O)CCC)c2ccsc12 | 0.444 µM (active) | 0.92 µM (active) | 3.94 µM (inactive) | 2.23 µM (inactive) | 5.55 µM (inactive) | 2.6 µM (inactive) | 1.63 µM (inactive) | 1.09 µM (active) | 0.359 µM (active) | 3.05 µM (inactive) | 1.83 µM (inactive) | 1.11 µM (active) | 2.76 µM (inactive) | 0.536 µM (active) | 0.836 µM (active) | 0.305 µM (active) | 1.41 µM (inactive) | 0.371 µM (active) | 1.36 µM (inactive) | 1.57 µM (inactive)
13 | C=C1c2nc3ccccc3n2C=C(c2ccc(Cl)cc2)N1c1ccc(OC)cc1 | 11.2 µM (inactive) | 5.07 µM (inactive) | 10.9 µM (inactive) | 3.56 µM (inactive) | 4.58 µM (inactive) | 3.44 µM (inactive) | 17.7 µM (inactive) | 22.9 µM (inactive) | 2.82 µM (inactive) | 10.1 µM (inactive) | 2.67 µM (inactive) | 11.9 µM (inactive) | 17.4 µM (inactive) |  | 15.4 µM (inactive) | 8.28 µM (inactive) | 14.5 µM (inactive) | 13.2 µM (inactive) | 8.38 µM (inactive) | 7.8 µM (inactive)
14 | CC12Nc3c(Cl)cc(Cl)cc3N1C(=O)c1ccccc12 (stereo not given) | 63.8 µM (inactive) | > 100 µM (inactive) | > 100 µM (inactive) | > 100 µM (inactive) | > 100 µM (inactive) |  | > 100 µM (inactive) | > 100 µM (inactive) | > 100 µM (inactive) | 78.3 µM (inactive) | > 100 µM (inactive) | > 100 µM (inactive) | > 100 µM (inactive) | > 100 µM (inactive) | > 100 µM (inactive) | > 100 µM (inactive) | > 100 µM (inactive) | > 100 µM (inactive) | > 100 µM (inactive) | 
15 | CSc1c(C#N)c(N)n(-c2ccc(C)cc2)c(=O)c1C#N | > 100 µM (inactive) | > 100 µM (inactive) | > 100 µM (inactive) |  | > 100 µM (inactive) | > 100 µM (inactive) | > 100 µM (inactive) | > 100 µM (inactive) | > 100 µM (inactive) | > 100 µM (inactive) | > 100 µM (inactive) | > 100 µM (inactive) | > 100 µM (inactive) |  | > 100 µM (inactive) | > 100 µM (inactive) | > 100 µM (inactive) | > 100 µM (inactive) | > 100 µM (inactive) | > 100 µM (inactive)
